# Read-outs that look alike come from different tables or passages of the source. Marks after values point to notes of the source that are not given here. Ends that are not written are not given here. Peptide text beside a SMILES is read from it.
# How the values were obtained:
# [1] = Fe^2+ chelating ability; conditions: 1 mg/mL, ferrozine, 10 min room temperature, absorbance 562 nm, mean ± SD
# Experimental: (§1) The antioxidant activity of the target peptides was evaluated by detecting the hydroxyl radical scavenging activity (∙OH), DPPH radical scavenging activity, and Fe^2+ chelating ability; the method was performed according to Zhu et al. with some modifications.
# Measurement of the Fe^2+ chelating ability. Briefly, 1 mL of LPLPFP was mixed with 0.05 mL of FeCl2 (2 mmol/L) and 0.2 mL of ferrozine (5 mmol/L). The mixture was vortexed and kept at room temperature for 10 min prior to the measurement of the absorbance at 562 nm (As). The control (Ac) contained everything except using deionized water instead of LPLPFP. The chelating ability was calculated according to the equation Fe^2+chelating ability (%) = (Ac − As) ÷ Ac × 100% where As and Ac represent the absorbance of the sample and the control groups. BHT was used as a positive control.
# [2] = ∙OH radical scavenging activity; conditions: 1 mg/mL, 37 °C 60 min, absorbance 536 nm, mean ± SD
# Experimental: as §1
# Measurement of the ∙OH radical scavenging activity. The sample group was a mixture of 0.6 mL of 1, 10-phenanthroline monohydrate (5 mmol/L) and 0.4 mL of phosphate buffer (0.2 M, pH 7.4), and then 0.6 mL of LPLPFP (1 mg/mL), 0.6 mL of EDTA (15 mmol/L), and 0.6 mL of FeSO4 (5 mmol/L) were mixed thoroughly. After mixing, 0.8 mL of H2O2 (0.1%) was added and incubated at 37 °C for 60 min. Afterward, the mixture absorbance was measured at 536 nm with the multifunctional microplate reader. The control group contained the same solutions as the sample group, except deionized water was used instead of the sample. The blank group contained the same solution as the control group, except deionized water was used instead of H2O2. The results were determined according to the equation. hydroxyl radical scavenging activity (%) = (As − Ac) ÷ (Ab − Ac) × 100% where As, Ac, and Ab represent the absorbance of the sample and the control and blank groups, respectively. BHT was used as a positive control.
# [3] = DPPH radical scavenging activity; conditions: 1 mg/mL, 0.2 mmol/L DPPH, 30 min room temperature, absorbance 517 nm, mean ± SD
# Experimental: as §1
# Measurement of the DPPH radical scavenging activity. One mL of the LPLPFP (dissolved in deionized water) was mixed with 1 mL of 0.2 mmol/L DPPH (in 95% ethanol) as the sample group; 1 mL of deionized water was mixed with 1 mL of ethanol (95%) as the blank group; and 1 mL of 0.2 mmol/L DPPH was mixed with 1 mL of ethanol (95%) as the control group. The mixture was agitated using a vortex and incubated for 30 min at room temperature, protected from light, and then the absorbance at 517 nm was measured. The scavenging activity of LPLPFP and BHT was calculated using the following equation:DPPH radical scavenging activity (%) = 1 − [ (As − Ac) ÷ (Ab − Ac)] × 100% where As, Ac, and Ab represent the absorbance of the sample, the control, and the blank groups, respectively. BHT was used as a positive control.
# [4] = test system: pepsin and trypsin; assay: Pepsin-trypsin simulated GI digestion stability; type: in vitro ADME; conditions: 400 μg/mL peptide; simulated gastric juice (pepsin, pH 3.0) 37 °C 2 h, then simulated intestinal fluid (trypsin, bile salt) 2 h; read-out: retained hepatoprotective activity (ALT, AST, MDA) in HHL-5 model
# Experimental: The stability of LPLPFP in response to pepsin and trypsin in the simulation of GI digestion in vitro was examined based on Xie et al.. A 1 L ultrapure water solution containing 2 g of NaCl and 3.2 g of pepsin (3000 U/mg protein) with a pH of 3.0 (adjusted with a 6 mol/L HCl solution), was configured as simulated gastric juice. In addition, 0.68 g of potassium dihydrogen phosphate, 7.7 mL of 0.2 mol/L NaOH solution, 1 g of trypsin (285 U/mg protein), and 6 g of bile salt were added and dissolved in 70 mL of ultrapure water with a pH of 7.6 (adjusted with a 0.2 mol/L NaOH solution) and the volume was filled with ultrapure water up to 1 L (as simulated intestinal fluid). The 400 μg/mL of peptide solution at pH 3.0 (adjusted with a 1 mol/L HCl solution) and 5 mL of simulated gastric juice was mixed and shaken at 37 °C for 2 h to simulate gastric digestion, then the mixture was terminated by being heated at 100 °C for 10 min, the pH was adjusted to 7.2 with a 0.2 mol/L NaOH solution, and 5 mL of simulated intestinal juice was added to the solution, and the same conditions were used for simulating intestinal digestion. Finally, the digestive liquid was transferred to the ultrafiltration centrifuge tube (1 kDa) and centrifuged at 4 °C, 8500× g for 20 min; the filtered solutions were desalted by a polar enhanced polymer (PEP) column (500 mg/6 mL) and dried in a vacuum freeze-dryer.
# [5] = test system: HHL-5 hepatocytes; assay: Cell viability by Cell Counting Kit-8
# Experimental: Furthermore, HHL-5 hepatocytes were cultured with different concentrations of GLHP (100 μg/mL, 200 μg/mL, 300 μg/mL, 400 μg/mL, and 500 μg/mL) to evaluate the cytotoxicity of GLHP, as described above. The ability of GLHP to protect HHL-5 hepatocytes was evaluated. […] In the CTRL group, a culture medium supplemented with an equal volume of the PBS was added and incubated for 12 h, and the culture medium was then substituted with an equal volume of the PBS and incubated for 48 h. Finally, the culture media and cells were collected for further analysis.
# The Cell Counting Kit-8 (CCK-8, Beijing Solarbio Science and Technology Co., Ltd., Beijing, China) was used to assess the HH-5 cell viability; the testing procedures were performed according to the manufacturer’s protocol. Adherent cells in 96-well culture plates were treated and then incubated with a CCK solution for 2 h; the absorbance was detected at a wavelength of 450 nm with the multifunctional microplate reader.
# [6] = test system: HHL-5 hepatocytes; assay: H2O2 level in alcohol-mediated HHL-5 hepatocytes; type: cell-based, human; conditions: alcohol alone (EtOH model group)
# Experimental: The cell suspension was inoculated into 96-well plates (4 × 10^3 per well) and added to the culture medium containing: DMEM-F12 (1:1, HyClone, Logan, UT, USA), 10% FBS (Gibco, New York, NY, USA), 1% P/S (100 U/L), 15 mmol/L of HEPES, and 2.5 mmol/L of L-glutamine, then the plates with cells were placed in a 5% CO2 humidified atmosphere at 37 °C for 24 h. […] Furthermore, HHL-5 hepatocytes were cultured with different concentrations of GLHP (100 μg/mL, 200 μg/mL, 300 μg/mL, 400 μg/mL, and 500 μg/mL) to evaluate the cytotoxicity of GLHP, as described above. The ability of GLHP to protect HHL-5 hepatocytes was evaluated. […] In the CTRL group, a culture medium supplemented with an equal volume of the PBS was added and incubated for 12 h, and the culture medium was then substituted with an equal volume of the PBS and incubated for 48 h. Finally, the culture media and cells were collected for further analysis.
# [7] = test system: HHL-5 hepatocytes; assay: CAT activity in alcohol-mediated HHL-5 hepatocytes; type: cell-based, human; conditions: alcohol alone (EtOH model group)
# Experimental: (§2) Cells were collected with PBS, the activity of ALT (C009-2-1), AST (C0010-2-1), and MDA (A003-1) in cell supernatant and the SOD (A001-3), GSH-Px (A005), CAT (A007-1-1), and ROS (E004-1-1) in the cells were measured using corresponding assay kits (Nanjing Jiancheng Biotechnology Institute, Nanjing, China) according to the manufacturer’s instructions.
# CAT: 0.05 mL of sample was mixed with 1.0 mL reagent one, 0.1 mL reagent two and performed at 37 °C for 1 min. Then, 1.0 mL reagent three and 0.1 mL reagent four were mixed with the miscible liquids. The absorbance value was measured at 405 nm wavelength by a multifunctional microplate reader.
# [8] = test system: HHL-5 hepatocytes; assay: GSH-Px activity in alcohol-mediated HHL-5 hepatocytes; type: cell-based, human; conditions: alcohol alone (EtOH model group)
# Experimental: as §2
# GSH-Px: 0.2 mL of sample was mixed with 0.2 mL of […] and performed at 37 °C for 5 min. Then, 0.1 mL of reagent one was added and performed at 37 °C for 5 min. Subsequently, the miscible liquids were centrifuged at 4 °C, 3500× g for 10 min. One mL of supernatant was mixed with 1 mL of reagent three, 0.25 mL of reagent four, and 0.05 mL of reagent five and performed at room temperature for 15 min. The absorbance value was measured at a 412 nm wavelength by a multifunctional microplate reader.
# [9] = test system: HHL-5 hepatocytes; assay: MDA level in model of alcohol-mediated HHL-5 hepatocytes damage; type: cell-based, human; conditions: alcohol 500 mmol/L, 48 h, no peptide pre-treatment (model group)
# Experimental: as §2
# MDA: 0.1 mL of sample was mixed with 0.1 mL of reagent one, 3 mL of reagent two, and 1 mL of reagent three in the 10 mL centrifuge tube. Then, the centrifuge tube was centrifuged at 4 °C, 3500× g for 10 min after being heated in a boiling water bath for 40 min. The absorbance value of 200 μL of the supernatant was measured at a 532 nm wavelength by a multifunctional microplate reader.
# [10] = test system: HHL-5 hepatocytes; assay: AST level in model of alcohol-mediated HHL-5 hepatocytes damage; type: cell-based, human; conditions: alcohol 500 mmol/L, 48 h, no peptide pre-treatment (model group)
# Experimental: as §2
# ALT and AST: 5 μL of sample was mixed with 20μL of ALT/AST matrix solution and the reaction was performed at 37 °C for 30 min. Then, 20 μL of 2, 4-dinitrophenylhydrazine solution was added and the reaction was performed at 37 °C for 20 min. Finally, 200 μL of sodium hydroxide solution (0.4 mol/L) was added and the reaction was performed at room temperature for 15 min. The absorbance value was measured at a 510 nm wavelength by a multifunctional microplate reader.
# [11] = test system: HHL-5 hepatocytes; assay: SOD activity in alcohol-mediated HHL-5 hepatocytes; type: cell-based, human; conditions: alcohol alone (EtOH model group)
# Experimental: as §2
# SOD: 20 μL of sample was mixed with 20 μL enzyme working liquid and 200 μL of substrate application solution. Then, miscible liquids were performed at 37 °C for 20 min. The absorbance values of the miscible liquids were measured at a 450 nm wavelength by a multifunctional microplate reader.
# [12] = test system: HHL-5 hepatocytes; assay: ROS level in alcohol-mediated HHL-5 hepatocytes (DCFH-DA); type: cell-based, human; conditions: alcohol alone (EtOH model group)
# Experimental: as §2
# ROS: A DCFH-DA probe was added directly to the serum-free medium: DCFH-DA was generally diluted with a serum-free medium at a final concentration of 10 µM at 1:1000. After removing the culture medium, an appropriate volume of diluted DCFH-DA was added. The volume added should be sufficient to cover the cells. Usually, no less than 1 mL of diluted DCFH-DA is added to one well of a 6-well plate. A sample of cells without a probe and with a medium only was set as negative for the control. Positive control: take a sample of cells with a probe and add reactive oxygen species to induce the cells. The cells were incubated at 37 °C for 20 min […] (mixed upside down every 5 min to make full contact between the probe and cell). […] In general, an obvious green fluorescence can be observed in the positive control cells after 30 min of stimulation. […] It can also be detected according to FITC fluorescence detection conditions. The results were expressed as fluorescence values.
# [13] = cited from earlier work
# Source text: Typically, oligopeptides containing 2 to 10 amino acid residues are considered to have a higher antioxidant activity compared with their parent protein [14]. Free radicals, linked to oxidative stress, are highly reactive with other molecules, including vital DNA and proteins, the destruction of which can damage or kill cells. Among the many free radicals, the ∙OH radical is commonly considered as one of the most harmful highly react ...
compound,measurement,setting,value
Cc1cc(C(C)(C)C)c(O)c(C(C)(C)C)c1 [BHT],Fe^2+ Chelating Ability (%),[1],14.39 ± 2.46 ^b %
same,∙OH Radical Scavenging Activity (%),[2],79.38 ± 2.03 ^b %
same,DPPH Radical Scavenging Activity (%),[3],90.56 ± 1.73 ^b %
"CC(C)C[C@H](NC(=O)[C@@H]1CCCN1C(=O)[C@@H](N)CC(C)C)C(=O)N1CCC[C@H]1C(=O)N[C@@H](Cc1ccccc1)C(=O)N1CCC[C@H]1C(=O)O [LPLPFP, Leu-Pro-Leu-Pro-Phe-Pro] (H-LPLPFP-OH)",resistance to pepsin-trypsin simulated GI digestion,[4],strong resistance
"CCO [alcohol, anhydrous ethanol]",viability of HHL-5 hepatocytes,"[5]; 500 mmol/L alcohol, 48 h, CCK-8, mean ± SD, at least triplicates",approximately 49.28 ± 5.12%
same,median lethal dose of alcohol for HHL-5 hepatocytes (LD50),"[5]; 48 h incubation, CCK-8",500 mmol/L
same,level of H2O2 after stimulation with alcohol,[6],43860 ± 3570 µM
same,level of CAT after administration of alcohol,[7],24.87 ± 3.28 U/mg prot
same,level of GSH-Px after administration of alcohol,[8],49.26 ± 4.82 U/mg prot
same,level of MDA in the EtOH group,[9],2.436e+07 ± 2.85e+06 µM
same,level of AST in the EtOH group,[10],376.57 ± 32.83 U/L
same,level of SOD after administration of alcohol,[11],31.28 ± 4.53 U/mg prot
same,level of ROS after stimulation with alcohol,[12],95.23 ± 6.54 U/mg prot
Gly-Lys-Phe-Asn-Val,Fe^2+ chelating ability (source: scavenging rate of Fe^2+),[13]; 1 mg/mL ref 16,63.20%
NPPKFD,Fe^2+ chelating ability (source: scavenging rate of Fe^2+),[13]; 1 mg/mL ref 3,66.92%

# Reference: publication PMC9655001, “Isolation and Identification of Antioxidative Peptide from Goose Liver Hydrolysate to Ameliorate Alcohol-Mediated Oxidative Stress Damage in HHL-5 Hepatocytes” (Molecules, 2022)
